Measured values from publication PMC12346966, “Targeting the Cell Wall Salvage Pathway: Dual-Enzyme Inhibition of AmgK and MurU as a Strategy Against Antibiotic Resistance” (International Journal of Molecular Sciences, 2025).
One block for each compound: values may come before it.

How the values were obtained:
PaMurU [1] = target: T1, PaMurU (Pseudomonas aeruginosa, UniProt Q9I5U0); assay: malachite green dual-enzyme assay IC50; target assigned by ESI-MS; type: biochemical
T1 construct: gene murU

PaMurU [2] = target: T1, PaMurU; assay: malachite green dual-enzyme assay IC50; target assigned by ESI-MS; SUPR-DSF shift +[…] °C; type: biochemical
PaMurU [3] = target: T1, PaMurU; assay: SUPR-DSF thermal shift (no Kd); nucleotide preference in enzyme assay; type: binding

T1 sequence (Q9I5U0 whole entry): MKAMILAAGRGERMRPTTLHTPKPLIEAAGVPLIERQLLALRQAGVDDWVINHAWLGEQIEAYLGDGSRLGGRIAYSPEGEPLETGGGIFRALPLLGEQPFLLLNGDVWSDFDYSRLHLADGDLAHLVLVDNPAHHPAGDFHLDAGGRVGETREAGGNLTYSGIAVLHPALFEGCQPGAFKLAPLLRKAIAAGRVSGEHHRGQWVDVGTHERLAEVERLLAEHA

Structure (SMILES): CCCCCCCCCCCCCCCC[N+](C)(C)C [compound 1, CTAB]
IC50 (PaMurU [1]): 8.25 µM

IC50 (PaMurU [2]): 14 µM
Structure (SMILES): Nc1c(/N=N/c2ccc(-c3ccc(/N=N/c4cc(S(=O)(=O)O)c5ccccc5c4N)cc3)cc2)cc(S(=O)(=O)O)c2ccccc12 [compound 2, 4-amino-3-[[4-[4-[(1-amino-4-sulfonatonaphthalen-2-yl)diazenyl]phenyl]phenyl]diazenyl] naphthalene-1-sulfonate]

ΔTm (PaMurU [3]): 3.86 °C
Structure (SMILES): O=c1ccn([C@@H]2O[C@H](COP(=O)(O)OP(=O)(O)OP(=O)(O)O)[C@@H](O)[C@H]2O)c(=O)[nH]1 [UTP]
